According to US20100227923A1, “PREVENTIVE/REMEDY FOR URINARY CALCULOSIS” (GODO SHUSEI CO., LTD., priority 2006, published 2010):
Read-outs that look alike come from different tables or passages of the source.

Assays:
[1] = Percent urine excretion (24 hours) of rats after intravenous administration; type: in vivo, Wistar rats; conditions: for Percent urine excretion (24 hours): rats, 0.5 mmol/kg i.v., av. ± standard error
Procedure: (§1) The percent urine excretion (24 hours) was determined in the following manner. To each of the 5- to 6-week-old male Wistar rats which had been fasted overnight, sodium L-arabonate (0.5 mmol/kg) was administered through the tail vein. The rats were placed in a metabolic cage where urine was collected for 24 hours. After removal of protein from the blood samples and urine samples, the blood L-arabonic acid level of each sample was determined through HPLC. Instead of L-arabonic acid, sodium D-gluconate was administered to the rats of the control group. The blood sodium D-gluconate level was determined by means of an F-kit (product of Roche Diagnostic).

mice = assay: Single-dose peroral safety experiment of mice (LD50); type: in vivo
[2] = Blood level of rats after intravenous administration; type: in vivo, Wistar rats
Procedure: After fasting overnight, 10- to 11-week old Wistar male rats were anesthetized with Nembutal, and sodium L-arabonate (0.5 mmol/kg) was administered through the femoral vein of each rat. Blood was sampled through the carotid artery as time elapsed, whereby the L-arabonic acid level was determined. Blood collection was performed by means of a heparin-treated capillary before administration and 5 min, 15 min, 30 min, and 1 hour after administration.
as §1

[3] = Non-Patent Documents 4 to 6; cited from earlier work
[4] = Non-Patent Documents 4 to 6; cited from earlier work; remark: listed apart in the source

For `O=C(O)[C@H](O)[C@@H](O)[C@@H](O)CO` [L-Arabonic acid, L-arabonic acid], the “Metabolism in the body” value ([1]; rat, in vivo) was “not metabolized in the body and is immediately excreted to urine”, the “Portion of the absorbed L-arabonic acid excreted to urine” value ([1]; rat, in vivo) was roughly 100% and the LD50 (mice) was “about 10 g/kg”.
With `O=C([O-])[C@H](O)[C@@H](O)[C@H](O)[C@H](O)CO.[Na+]` [Sodium D-gluconate, sodium D-gluconate] the “Metabolism in the body” value [1] was “a large portion thereof is thought to be metabolized and consumed in the body”, the “Percent urine excretion (24 hours)” value [1] was 9.8 ± 9.76% and the “Percent urine excretion (24 hours)” value ([1]; listed as sodium D-gluconate) was “about 10%”. The “Blood D-gluconic acid level” value ([2]; rats, 0.5 mmol/kg i.v.) was “considerably low”.
In the case of `O=C(O)[C@H](O)[C@@H](O)[C@H](O)[C@H](O)CO` [D-gluconic acid], the “Dissolving of calcium phosphate calculi and magnesium phosphate calculi” value [3] is listed as “dissolve” and the “Dissolving of calcium oxalate calculi” value [4] is listed as “not to dissolve”.
With `O=C([O-])[C@H](O)[C@@H](O)[C@@H](O)CO.[Na+]` [Sodium L-arabonate, sodium L-arabonate] the “Time at which blood level decreased to about the half value” ([2]; rat, in vivo, iv) was 22 min.
